From a compilation of properties of binary mixtures (doi:10.1016/j.molliq.2018.08.031)

Assay: xn = mol fraction of the nth substance listed
Settings: 100 kPa

COCCOCCOC + CCCC[n+]1ccn(C)c1.F[P-](F)(F)(F)(F)F
Settings	viscosity [mPa·s]
283.15 K, x2 = 0.0571	2.381
283.15 K, x2 = 0.1013	3.238
283.15 K, x2 = 0.2923	11.69
283.15 K, x2 = 0.39	19.81
283.15 K, x2 = 0.492	37.5
283.15 K, x2 = 0.6827	114.6
283.15 K, x2 = 0.9711	618
293.15 K, x2 = 0.057	1.99
293.15 K, x2 = 0.1982	4.59
293.15 K, x2 = 0.2963	7.91
293.15 K, x2 = 0.3913	14.79
293.15 K, x2 = 0.5865	39.52
293.15 K, x2 = 0.6814	66.5
293.15 K, x2 = 0.7968	124.3
293.15 K, x2 = 0.892	209.7
303.15 K, x2 = 0.0995	1.623
303.15 K, x2 = 0.1973	2.826
303.15 K, x2 = 0.2994	5.146
303.15 K, x2 = 0.4896	14.66
303.15 K, x2 = 0.5893	24.8
303.15 K, x2 = 0.6884	40.83
303.15 K, x2 = 0.8923	113.3
303.15 K, x2 = 0.9596	158.7
313.15 K, x2 = 0.057	0.953
313.15 K, x2 = 0.0943	0.744
313.15 K, x2 = 0.1995	0.789
313.15 K, x2 = 0.2856	1.631
313.15 K, x2 = 0.4877	7.46
313.15 K, x2 = 0.6781	21.08
313.15 K, x2 = 0.7994	38.25
313.15 K, x2 = 0.8941	61
313.15 K, x2 = 0.9553	83.2
